In article PMC8750417, “Intracellular Amplifiers of Reactive Oxygen Species Affecting Mitochondria as Radiosensitizers” (Cancers, 2021):

System: Jurkat cells
Test: Total intracellular ROS (CM-DCFH-DA), Jurkat
Assay type: cell-based, human
Conditions: 1 h
Description: Monitoring total intracellular ROS (tROS)
A2780 cells were seeded in RPMI 1640 medium containing 5% FBS, 1% L-glutamine and 1% penicillin/streptomycin in a 24-well microtiter plate (total volume 0.5 mL) at a density of 200 cells/µL one day before the experiment. On the day of the experiment, the cells were washed twice with DPBS buffer and the medium was replaced with HBSS (Hanks' Balanced Salt solution, 500 μL). CM-DCFH-DA (5-(6-)chloromethyl-2',7'- dichlorodihydrofluorescein diacetate, Thermo- Fisher) solution (0.1 mM in DMSO, 5 μL) was added (final concentration 1 µM) and the cells were incubated in the dark chamber filled with CO2 (5%) at 37 °C for 15 min. […] Finally, the fluorescence of live cells (λex = 488 nm, λem = 525 nm) in the suspensions was determined by using flow cytometry (Figure 4A, 5C).
Intracellular ROS release in Jurkat cells was monitored analogously (Figure S58).
Figure S58. […] OY-axis “Fluorescence”: the increase of the mean fluorescence (λex = 488 […]

CC1(C)OB(c2ccc(COC(=O)N(Cc3cn(Cc4ccc(Cn5cc(Cc6ccccc6)nn5)cc4)nn3)[c-]3cccc3)cc2)OC1(C)C.[Fe+2].c1cc[cH-]c1 [2c]
total ROS (tROS) vs background: significantly higher than its background levels
